# The source made the active and inactive calls.
# Legend:
# BJ [1] = test: cytotoxicity toward BJ-TERT fibroblasts, dose response, cell-based, RAS-independent, luminescence (AID 1933); format: functional; conditions: Homo sapiens
# BJ [2] = test: cells; format: functional, cell-based; conditions: Homo sapiens
# BJ [3] = test: cytotoxicity toward BJ-TERT-LT-ST fibroblasts, dose response, cell-based, RAS-independent, luminescence (AID 1935); format: functional; conditions: Homo sapiens;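 further: BJ fibroblasts immortalized with TERT plus LT and ST oncogenes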
# [4] = cytotoxicity toward DRD oncogenic fibroblasts, dose response, cell-based, non-viral oncogenic, luminescence (AID 1934); format: functional; conditions: Homo sapiens
# [5] = molecular target: Luciferin 4-monooxygenase (Photinus pyralis, UniProt P08659); test: firefly luciferase enzyme inhibitors, dose response, biochemical, luminescence (AID 1891)
# [6] = Luminescence Cell-Based Dose Confirmation HTS to Identify Inhibitors of Platelet Dense Granule Release. [Related pubchem assays: 1663 (Primary HTS), 1678 (Summary of Project)]; format: functional
# [7] = inhibitors of SNCA 5'UTR-driven reporter translation, confirmation, H4 neuroglioma cells, luminescence (AID 1988); format: functional, cell-based
# [8] = Shn3 3'UTR reporter inhibitors, dose response, cell-based, Clone20 osteoblasts, firefly luciferase, cherry-picked (AID 624132); format: functional;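 further: firefly luciferase luminescence from reporter carrying the Shn3 3'UTR in osteoblasts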
# [9] = HepG2 cell cytotoxicity, dose response, cytotoxicity control for Shn3 inhibitor project, CellTiter-Glo, cherry-picked (AID 624134); format: functional, cell-based
# [10] = control 3'UTR Renilla luciferase suppression, dose response, counter-screen for Shn3 inhibitor project, cell-based, Clone20-Shn3RL, cherry-picked (AID 624133); format: functional
# [11] = molecular target: T1, RNA-binding protein pos-1 (Caenorhabditis elegans, UniProt G5EF15); test: inhibitors of POS-1/mex-3 RNA binding, dose response, biochemical, fluorescence polarization (AID 1964);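 further: purified POS-1 fused to maltose binding protein made in E. coli; potency of compounds blocking POS-1 binding to fluorescent RNA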
# T1 sequence (G5EF15 whole entry): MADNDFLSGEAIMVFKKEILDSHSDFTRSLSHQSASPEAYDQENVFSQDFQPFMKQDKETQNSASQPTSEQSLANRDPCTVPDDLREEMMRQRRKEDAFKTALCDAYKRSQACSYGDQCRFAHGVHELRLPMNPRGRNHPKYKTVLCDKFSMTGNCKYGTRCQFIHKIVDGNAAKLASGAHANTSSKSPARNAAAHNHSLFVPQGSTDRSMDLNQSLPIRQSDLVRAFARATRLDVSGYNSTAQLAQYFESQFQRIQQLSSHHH
# [12] = molecular target: T2, Zinc finger protein mex-5 (Caenorhabditis elegans, UniProt Q9XUB2); test: MEX-5/TCR-2 RNA interaction inhibitors, dose response, biochemical, C. elegans, fluorescence polarization (AID 1960)
# T2 sequence (Q9XUB2 whole entry): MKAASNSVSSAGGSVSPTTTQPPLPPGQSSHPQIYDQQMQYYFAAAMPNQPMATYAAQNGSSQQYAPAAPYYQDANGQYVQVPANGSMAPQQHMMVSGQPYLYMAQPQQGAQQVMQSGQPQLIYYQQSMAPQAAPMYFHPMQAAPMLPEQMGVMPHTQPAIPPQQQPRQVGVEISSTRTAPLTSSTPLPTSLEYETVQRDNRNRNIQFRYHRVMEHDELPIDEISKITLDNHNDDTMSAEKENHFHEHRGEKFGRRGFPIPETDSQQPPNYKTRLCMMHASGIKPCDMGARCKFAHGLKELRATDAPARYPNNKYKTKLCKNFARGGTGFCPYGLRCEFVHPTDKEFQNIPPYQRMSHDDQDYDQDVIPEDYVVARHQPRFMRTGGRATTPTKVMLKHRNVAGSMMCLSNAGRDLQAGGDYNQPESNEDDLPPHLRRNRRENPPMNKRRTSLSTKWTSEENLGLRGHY
# Cytochrome P450 2C19 = Cytochrome P450 2C19 (Homo sapiens, UniProt P33261); test: Cytochrome panel assay with activity outcomes. Panel member name: p450-cyp2c19 Compounds with AC50 equal or less than 10 uM are considered active; format: functional; conditions: read-out: AC50
# Cytochrome P450 1A2 = molecular target: T3, Cytochrome P450 1A2 (Homo sapiens, UniProt P05177);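 further: PubChem cytochrome P450 panel assay, CYP1A2 panel member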
# T3 sequence (P05177 whole entry): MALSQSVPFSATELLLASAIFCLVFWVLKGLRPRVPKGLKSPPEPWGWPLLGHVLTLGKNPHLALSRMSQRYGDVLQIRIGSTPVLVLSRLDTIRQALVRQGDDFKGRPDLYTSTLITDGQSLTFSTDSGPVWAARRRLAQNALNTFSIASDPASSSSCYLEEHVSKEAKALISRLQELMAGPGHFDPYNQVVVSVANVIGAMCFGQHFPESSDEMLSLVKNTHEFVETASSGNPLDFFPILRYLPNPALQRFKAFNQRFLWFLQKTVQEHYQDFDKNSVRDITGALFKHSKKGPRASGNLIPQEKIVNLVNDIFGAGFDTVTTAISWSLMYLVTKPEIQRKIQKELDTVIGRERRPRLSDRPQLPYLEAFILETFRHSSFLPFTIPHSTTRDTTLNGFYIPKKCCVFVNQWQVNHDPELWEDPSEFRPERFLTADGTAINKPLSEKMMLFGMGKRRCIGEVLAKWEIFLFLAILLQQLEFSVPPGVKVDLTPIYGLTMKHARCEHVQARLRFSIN
# Cytochrome P450 2C9 = Cytochrome P450 2C9 (Homo sapiens, UniProt P11712)
# Large T antigen = Large T antigen (Simian virus 40, UniProt P03070); format: functional, Betapolyomavirus macacae;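 further: Confirmatory-stage PubChem screen for compounds that inhibit SV40 T antigen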
# [13] = molecular target: T4, Corticotropin-releasing factor receptor 2/Corticotropin-releasing factor-binding protein (Homo sapiens, UniProt P24387+Q13324); test: activators of CRF receptor 2 with binding protein – uHTS hits, confirmation (AID 602473); format: functional; conditions: read-out: EC50_Mean
# T4 sequence (Q13324 whole entry): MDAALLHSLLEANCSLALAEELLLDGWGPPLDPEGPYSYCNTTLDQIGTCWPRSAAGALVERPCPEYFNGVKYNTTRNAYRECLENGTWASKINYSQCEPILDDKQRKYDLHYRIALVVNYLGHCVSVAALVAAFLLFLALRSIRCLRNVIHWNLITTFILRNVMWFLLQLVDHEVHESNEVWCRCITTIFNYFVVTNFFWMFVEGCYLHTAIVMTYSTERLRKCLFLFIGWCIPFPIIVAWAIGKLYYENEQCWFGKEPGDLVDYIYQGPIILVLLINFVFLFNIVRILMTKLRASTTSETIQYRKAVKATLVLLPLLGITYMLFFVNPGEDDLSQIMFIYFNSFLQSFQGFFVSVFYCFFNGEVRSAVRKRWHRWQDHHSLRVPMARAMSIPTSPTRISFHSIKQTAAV
# T4 sequence (P24387 whole entry): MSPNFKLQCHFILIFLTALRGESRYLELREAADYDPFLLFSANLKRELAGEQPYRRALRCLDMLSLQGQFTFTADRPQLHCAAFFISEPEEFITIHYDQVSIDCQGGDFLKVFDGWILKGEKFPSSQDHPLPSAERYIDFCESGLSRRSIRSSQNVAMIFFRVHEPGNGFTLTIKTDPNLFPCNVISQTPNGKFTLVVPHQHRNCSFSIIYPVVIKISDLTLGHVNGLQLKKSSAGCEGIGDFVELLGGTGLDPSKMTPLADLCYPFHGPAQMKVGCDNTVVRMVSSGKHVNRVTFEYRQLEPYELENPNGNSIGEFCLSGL
# [14] = molecular target: T5, Heat shock factor protein 1 (Mus musculus, UniProt P38532); test: HSF1 potentiators in luciferase reporter cells, confirmation, cell-based, NIH3T3, luminescence, dose retest (AID 435004); format: functional;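 further: stress induced by proteasome inhibitor MG132 added 30 min after compound; luciferase reporter driven by HSF1 response element in NIH3T3 cells; actives raise luminescence as potentiators of the MG132 stress response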
# T5 sequence (P38532 whole entry): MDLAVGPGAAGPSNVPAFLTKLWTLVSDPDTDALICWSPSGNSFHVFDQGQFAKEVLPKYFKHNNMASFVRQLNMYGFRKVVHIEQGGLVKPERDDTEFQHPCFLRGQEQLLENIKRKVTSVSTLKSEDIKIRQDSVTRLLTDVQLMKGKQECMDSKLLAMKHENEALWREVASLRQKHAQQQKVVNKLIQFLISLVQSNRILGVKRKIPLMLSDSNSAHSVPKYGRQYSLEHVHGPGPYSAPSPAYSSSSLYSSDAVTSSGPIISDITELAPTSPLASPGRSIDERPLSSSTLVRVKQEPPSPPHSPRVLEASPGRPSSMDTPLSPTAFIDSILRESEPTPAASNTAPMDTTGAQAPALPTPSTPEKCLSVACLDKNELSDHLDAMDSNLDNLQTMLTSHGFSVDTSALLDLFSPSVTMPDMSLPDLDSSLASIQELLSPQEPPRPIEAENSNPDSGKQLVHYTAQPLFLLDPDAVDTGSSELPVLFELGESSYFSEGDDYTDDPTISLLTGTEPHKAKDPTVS
# INS1 = test: beta cell apoptosis inhibitors, cytokine rescue, dose response, luminescence, retest (AID 449756); format: functional, cell-based; conditions: Rattus norvegicus;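 further: cell death triggered by IL-1 beta plus TNF-alpha plus IFN-gamma mixture; protective hits raise ATP signal compared with cytokine alone wells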
# Large T antigen, sequence (P03070 whole entry): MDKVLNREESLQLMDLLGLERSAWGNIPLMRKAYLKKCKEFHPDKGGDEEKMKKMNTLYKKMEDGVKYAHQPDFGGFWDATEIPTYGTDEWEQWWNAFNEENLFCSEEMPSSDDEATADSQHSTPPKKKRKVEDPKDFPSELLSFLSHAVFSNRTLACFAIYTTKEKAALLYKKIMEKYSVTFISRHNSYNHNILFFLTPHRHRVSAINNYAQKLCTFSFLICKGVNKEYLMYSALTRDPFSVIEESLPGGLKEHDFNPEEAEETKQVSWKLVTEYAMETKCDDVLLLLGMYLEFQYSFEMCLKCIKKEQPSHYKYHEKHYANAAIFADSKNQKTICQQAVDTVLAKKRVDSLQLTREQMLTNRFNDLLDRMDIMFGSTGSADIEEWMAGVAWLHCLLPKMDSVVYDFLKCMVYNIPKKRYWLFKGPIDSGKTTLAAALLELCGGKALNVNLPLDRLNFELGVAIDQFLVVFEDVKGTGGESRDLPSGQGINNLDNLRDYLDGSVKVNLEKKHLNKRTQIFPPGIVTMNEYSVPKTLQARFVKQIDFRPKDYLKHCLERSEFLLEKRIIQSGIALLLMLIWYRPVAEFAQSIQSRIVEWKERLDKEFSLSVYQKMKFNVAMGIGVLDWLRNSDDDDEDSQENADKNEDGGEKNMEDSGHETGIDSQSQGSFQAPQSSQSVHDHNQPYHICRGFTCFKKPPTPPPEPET
# Luciferin 4-monooxygenase, sequence (P08659 whole entry): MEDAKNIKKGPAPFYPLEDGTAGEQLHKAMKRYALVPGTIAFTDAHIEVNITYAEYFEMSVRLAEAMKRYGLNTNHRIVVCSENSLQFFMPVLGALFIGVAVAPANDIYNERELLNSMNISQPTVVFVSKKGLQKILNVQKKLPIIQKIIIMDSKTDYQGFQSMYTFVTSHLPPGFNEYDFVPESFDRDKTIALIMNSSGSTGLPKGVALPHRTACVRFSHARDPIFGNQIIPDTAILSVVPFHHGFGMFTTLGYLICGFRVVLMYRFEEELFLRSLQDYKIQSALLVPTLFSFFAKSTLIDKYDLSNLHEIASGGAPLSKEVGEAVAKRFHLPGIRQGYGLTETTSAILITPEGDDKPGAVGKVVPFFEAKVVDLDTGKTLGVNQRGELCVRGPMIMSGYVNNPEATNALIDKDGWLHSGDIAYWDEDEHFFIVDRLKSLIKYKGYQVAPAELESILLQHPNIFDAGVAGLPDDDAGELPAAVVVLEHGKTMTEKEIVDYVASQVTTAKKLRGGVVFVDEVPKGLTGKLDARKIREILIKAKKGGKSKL
# Cytochrome P450 2C9, sequence (P11712 whole entry): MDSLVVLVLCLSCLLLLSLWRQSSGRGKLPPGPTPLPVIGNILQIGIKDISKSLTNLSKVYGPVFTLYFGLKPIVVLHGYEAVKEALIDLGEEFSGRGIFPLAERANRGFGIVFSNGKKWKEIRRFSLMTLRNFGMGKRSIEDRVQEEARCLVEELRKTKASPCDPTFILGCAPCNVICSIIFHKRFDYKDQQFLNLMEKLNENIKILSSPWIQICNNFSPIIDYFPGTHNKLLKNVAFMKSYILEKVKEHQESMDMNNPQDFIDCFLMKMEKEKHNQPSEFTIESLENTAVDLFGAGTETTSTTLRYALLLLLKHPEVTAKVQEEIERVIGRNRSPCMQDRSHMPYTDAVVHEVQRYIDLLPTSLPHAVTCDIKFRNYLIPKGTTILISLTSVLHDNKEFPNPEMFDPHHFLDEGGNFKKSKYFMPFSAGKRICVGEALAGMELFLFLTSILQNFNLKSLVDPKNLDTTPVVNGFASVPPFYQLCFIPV
# Cytochrome P450 2C19, sequence (P33261 whole entry): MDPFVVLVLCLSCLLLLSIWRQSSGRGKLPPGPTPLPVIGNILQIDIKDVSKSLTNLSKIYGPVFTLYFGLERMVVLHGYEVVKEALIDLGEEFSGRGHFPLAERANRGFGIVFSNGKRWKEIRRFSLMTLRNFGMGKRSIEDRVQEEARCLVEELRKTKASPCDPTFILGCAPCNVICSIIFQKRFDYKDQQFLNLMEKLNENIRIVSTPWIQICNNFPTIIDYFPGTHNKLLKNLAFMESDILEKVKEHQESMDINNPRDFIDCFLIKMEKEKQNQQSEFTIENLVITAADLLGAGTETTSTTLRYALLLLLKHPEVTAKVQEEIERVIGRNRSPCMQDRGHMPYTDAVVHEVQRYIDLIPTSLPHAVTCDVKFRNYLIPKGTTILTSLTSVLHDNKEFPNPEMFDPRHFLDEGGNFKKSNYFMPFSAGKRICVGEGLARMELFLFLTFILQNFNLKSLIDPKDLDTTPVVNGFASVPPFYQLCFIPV
smiles,measurement,setting,value
O=C(CCN1C(=O)/C(=C\c2ccccc2F)SC1=S)N1CCCCC1,EC50,BJ [1],15.8 µM (active)
same,EC50,BJ [2],14.4 µM (active)
same,EC50,BJ [3],> 75 µM (not active)
same,EC50,[4],15.5 µM (active)
Cc1c(Cl)cccc1NC(=O)Nc1ccc(C(=O)N2CCCC2)cc1,EC50,[5],1.94 µM (active)
same,EC50,[6],30.4 µM (active)
Oc1nc(/C=C/c2ccccc2F)nc2ccccc12,EC50,BJ [1],2.12 µM (active)
same,EC50,[7],7.23 µM (inconclusive)
same,EC50,BJ [2],45.2 µM (inconclusive)
same,EC50,BJ [3],29.3 µM (inconclusive)
same,EC50,[4],2.25 µM (active)
Cn1c(=O)c2c(nc(CN3CCOCC3)n2CC(=O)c2ccccc2)n(C)c1=O,EC50,[5],> 112 µM (not active)
same,EC50,[6],39 µM (active)
CCN1CCN(Cc2ccc(NC(=O)c3cc(NC(=O)c4cncc(-c5cccs5)c4)cc(OC)c3)cc2C(F)(F)F)CC1,AC50,[8],9.68 µM (active)
same,AC50,[9],> 70 µM (inactive)
same,AC50,[10],27.3 µM (active)
COc1ccc(CC(=O)NNC2=Nc3cccc4cccc2c34)cc1,EC50,[11],119 µM (inconclusive)
same,EC50,[12],> 150 µM (inconclusive)
CC(=O)c1cccc(-n2nnnc2SCC(=O)N2CCCC2)c1,EC50,[5],> 112 µM (not active)
same,EC50,[6],> 112 µM (not active)
Cc1ccc(/C=N/NC(=O)c2nn(C)cc2Cl)cc1,EC50,[5],19.9 µM (active)
same,EC50,[6],16.6 µM (active)
COc1cc(Cl)ccc1OCc1cc(C(=O)N2C[C@]3(C)C[C@H]2CC(C)(C)C3)no1,EC50,[5],27 µM (active)
same,EC50,[6],> 112 µM (not active)
O=C(OCC(=O)c1ccco1)c1ccc2ncsc2c1,EC50,[11],> 300 µM (not active)
same,EC50,[12],> 300 µM (not active)
CCCC[C@H](CC)CNC(=N)NC(=N)NCCCCCCNC(=N)NC(=N)NC[C@@H](CC)CCCC,AC50,Cytochrome P450 2C19,3.98 µM (inconclusive)
same,AC50,Cytochrome P450 1A2,15.8 µM (inconclusive)
same,AC50,Cytochrome P450 2C9,20 µM (inconclusive)
Cc1nnc(NC(=O)CSc2cn(CCNC(=O)c3ccccc3)c3ccccc23)s1,EC50,[5],> 112 µM (not active)
same,EC50,[6],80 µM (active)
CSc1ccc(C(=O)C2CCCN(S(=O)(=O)c3c(C)noc3C)C2)cc1 (stereo not drawn),EC50,[5],> 112 µM (not active)
same,EC50,[6],> 112 µM (not active)
Cc1ccc(S(=O)(=O)CCC(=O)Oc2ccc3c(C)cc(=O)oc3c2)cc1,IC50,Large T antigen,48.6 µM (active)
Cc1cc2c(n1-c1ccc(C(=O)O)cc1)CCCCC2,IC50,Large T antigen,71.2 µM (active)
Cc1ccc(S(=O)(=O)N(CCCN2CCCC2=O)Cc2cc3c(C)ccc(C)c3[nH]c2=O)cc1,EC50,[11],> 300 µM (not active)
same,EC50,[12],> 300 µM (not active)
Cc1ccc(CN2CCN(/N=C/C(Br)=C\c3ccccc3)CC2)cc1,EC50,[13],> 53 µM (inactive)
COc1ccc(NC(=O)CN2CCC(NC(=O)C3CCCCC3)CC2)c([N+](=O)[O-])c1,EC50,[11],67.9 µM (active)
same,EC50,[12],> 300 µM (not active)
Cc1c(C(=O)O)cccc1-n1c(C)cc(C=O)c1C,EC50,[11],> 300 µM (not active)
same,EC50,[12],> 300 µM (not active)
O=C(Nc1ccccc1O)c1cccc(S(=O)(=O)Nc2ccccc2O)c1,EC50,[11],59.1 µM (active)
same,EC50,[12],36.2 µM (active)
same,EC50,[14],> 260 µM (inactive)
Cc1cccc(-n2c(C)cc(/C=C3\C(=N)N4N=C(CC(C)C)SC4=NC3=O)c2C)c1,EC50,[13],24.2 µM (active)
CCOC(=O)C1CCN(C(=O)c2ccc3c(c2)NC(=O)/C(=C\c2ccc(C)cc2)S3)CC1,EC50,[11],7.37 µM (active)
same,EC50,[12],30.8 µM (active)
CC(C)(C)NC(=O)CN1CCN(C(=O)CCl)CC1,EC50,BJ [1],> 150 µM (not active)
same,EC50,BJ [2],> 150 µM (inconclusive)
same,EC50,BJ [3],> 150 µM (not active)
same,EC50,[4],> 150 µM (not active)
COc1ccc(NC(=O)CN(C)C(=O)CSc2ccc3c(c2)OCCO3)cc1,EC50,[13],> 53 µM (inactive)
NC(Cc1ccc(Cl)cc1)c1csc(NC(=O)NCC2CCCCC2)n1 (stereo not drawn),AC50,[8],6.58 µM (active)
same,AC50,[9],11.1 µM (active)
same,AC50,[10],9.27 µM (active)
Cc1cccc(-c2cnn(-c3ccccc3)c2N)c1,EC50,[5],46 µM (active)
same,EC50,[6],31.7 µM (active)
COc1cc(SC)ccc1C(=O)N1CCN(Cc2ccccc2)CC1,IC50,Large T antigen,53.8 µM (active)
CCN1CCc2nc(NC(=O)c3ccc4c(c3)OCCO4)sc2C1,AC50,Cytochrome P450 1A2,3.16 µM (inconclusive)
same,AC50,Cytochrome P450 2C9,12.6 µM (inconclusive)
Cc1ccc(-c2sc(-c3ccccc3)nc2CC(=O)Nc2ccccc2F)cc1,AC50,INS1,2.27 µM (active)
same,EC50,[13],> 53 µM (inactive)
O=C(C(Cc1ccccc1)n1cccc1)N1CCN(c2ncccn2)CC1 (stereo not drawn),EC50,[5],> 112 µM (not active)
same,EC50,[6],> 112 µM (not active)
CCN1/C(=C2\SC(=S)N(Cc3ccccc3)C2=O)Sc2ccccc21,EC50,[13],> 53 µM (inactive)
Cc1ccnc(NC(=O)c2ccoc2C)c1,EC50,[5],17.5 µM (active)
same,EC50,[6],3.51 µM (active)
